From US10300048B2, “Thiazolidinones as cellular anandamide uptake inhibitors and their use in the treatment of psychiatric or neurological disorders and inflammation, in particular neuroinflammation” (UNIVERSITAT BERN, priority 2014, dated 2019)

Experiments:
BALB/c mice = assay: In vivo tetrad test in BALB/c mice; details: 5.0 mg/kg i.p., vs. vehicle; for anti-nociceptive effect in the hot plate test / time spent in the immobile state (catalepsy, bar test) / locomotion (RotaRod): 60 min; for body temperature (tetrad test): 1 h post injection
Description: In vivo Tetrad Test in BALB/c Mice
In mice cannabimimetic substances induce a characteristic profile of behavioral effects (tetrad) which include suppression of locomotion, antinociception, hypothermia and catalepsy (Martin et al., 1991, Pharmacol Biochem Behav, 40, 471-8; Wiley, 2003, Eur J Pharmacol, 471, 185-93; Howlett et al., 2002, Pharmacol Rev, 54, 161-202). Male BALB/c mice (8 weeks old, 20-25 g body weight) were housed under standard environmental conditions (n=5 per cage) at 22-24° C. under a 12 h to 12 h light-dark cycle supplied with food and water ad libitum. ETI-T compounds were dissolved in pure DMSO and administered intraperitoneally (i.p) at doses of 5.0 mg/kg in 20 μL of vehicle 60 min prior to evaluation of behavioural effects. The tetrad test battery was carried out as follows: Rectal temperature was determined using a Physitemp thermometer (Physitemp Instruments Inc., Clifton, N.J. with a thermocoupled probe 1-2 cm into the rectum. The temperature was measured 10 min before compound administration and 1 h post injection. Changes in rectal temperature were expressed as the difference between basal and post injection temperatures. Catalepsy was determined using the bar test where mice were placed on a bar oriented parallel to and approximately 4-5 cm off of the ground. The duration of the time a mouse remained motionless (except respiration) with its front paws on the bar was scored over 40 s. Hypomotility was determined using the RotaRod performance test based on a rotating rod with forced motor activity being applied to the mouse. The maximal duration of this test was about 120 s at a velocity of 4 rpm. Analgesia was determined by the hot plate test. Mice were place on a heated plate (54-56° C.) in a Plexiglas cylinder for a maximum of 2 min. […] All experiments were repeated independently on different days. Animals were handled according to the guidelines on use and care of experimental animals (Mexican Official Norm NOM-062-ZOO-1999 published by SAGARPA in the Diario Oficial del Gobierno Mexicano, 2001), which is in accordance with the Code of Ethics of the Directive 2010/63/EU.
(§1) Statistical analysis and IC50 values were determined using GraphPad® Prism 5.0 (GraphPad® Software, San Diego, Calif., US). Inhibition curves were obtained by non-linear regression using the built-in log(inhibitor) vs. response-variable slope (four parameters) function. Results were calculated as % of vehicle control of the corresponding fraction (cells, aqueous phase) if not mentioned else. In vivo results are shown in absolute values and were analyzed by a one-way ANOVA following a Tukey's multiple comparison test or student's t-test. If not indicated else the results were compared vs. vehicle (CTRL). *** P<0.001, ** P<0.01, * P<0.05, ns=not significant P>0.05.

[1] = tested on: TNF-alpha and IL-1beta in brain; assay: Endotoxemia mouse model (LPS), brain cytokines; type: in vivo, mice; details: 5 mg/kg i.p. 30 min prior to LPS 250 μg/100 g i.p., vs. vehicle, P<0.05
Description: Male BALB/c mice were injected i.p. with test compounds (5 mg/kg) or vehicle (DMSO, 20 μL) 30 min prior to LPS administration (250 μg/100 g body weight) in 50 μL saline solution. The administrations were conducted between 9:00 and 10:00 am. 30 min prior to scarification, 20 units (200 μL) of Inhepar® were injected subcutaneously. […] The brain was immediately removed on ice and stored in liquid nitrogen. […] The concentrations of the cytokines in brain and plasma were measured using commercially available Luminex MagPix cytokines assay (BioRad) specific for mice, according to the manufacturer's instructions. The acquisition of the fluorescent signal was achieved by a charged-coupled device (CCD) imager. The concentration of the analytes was determined by MAGPIX xPONENT. The assays were run in triplicates and the concentrations were expressed in pg/mL based on a standard curve.
as §1

SMILES	anti-nociceptive effect in the hot plate test (BALB/c mice)	time spent in the immobile state (catalepsy, bar test) (BALB/c mice)	body temperature (tetrad test) (BALB/c mice)	locomotion (RotaRod) (BALB/c mice)	IL-1beta level in total brain ([1]; after 2 hours)	TNF-alpha level in total brain ([1]; after 2 hours)	IL-1beta level in total brain ([1]; after 8 hours)	TNF-alpha level in total brain ([1]; after 8 hours)
O=C1/C(=C/c2cc(Cl)c(O)c(Cl)c2)S/C(=N\c2ccccc2)N1Cc1ccco1 [Compound 23]	anti-nociceptive effect	increased time spent in the immobile state	decreased body temperature	–	–	–	–	–
COc1cc(/C=C2\S/C(=N\c3ccccc3)N(c3ccccc3)C2=O)ccc1O [Compound 6]	anti-nociceptive effect	–	decreased body temperature	reduced locomotion	–	–	–	–
COc1ccc(/C=C2\S/C(=N\c3ccc(OC)cc3)N(c3ccc(OC)cc3)C2=O)cc1 [Compound 5]	anti-nociceptive effect	increased time spent in the immobile state	decreased body temperature	reduced locomotion	Decrease	Decrease	Decrease	Decrease
